From patent US9447157B2, “Nitration shielding peptides and methods of use thereof” (Augusta University Research Institute, Inc., priority 2013, dated 2016) come the findings set out here.

Experiment [1] deals with Pulmonary artery smooth muscle cells (PASMC). In words: PASMC cellular metabolism (alamarBlue assay). In kind it is cell-based, lamb. As to conditions: SIN-1 500 μM 48 h. The method, then: This was determined via the alamarBlue assay (AbD Serotec, Oxford, UK). The assay is based on the reducing ability of metabolically active cells to convert the active reagent, resazurin, into a fluorescent and colorimetric indicator, resorufin. When added to cell cultures, the oxidized, resazurin enters the cytosol and is converted to the reduced, resorufin in the mitochondria by accepting electrons from NADH, NADPH, FADH2, FMNH2, as well as from the cytochromes. The non-toxic and cell permeable nature of alamarBlue permits the long-term exposure of cells. PASMC were grown on a 10 cm dish to 75% confluence, transfected with WT-PKG-1α or Y247F-PKG-1α cDNA, and incubated at 37° C. for 20 h. The cells were trypsinized and seeded onto a 24-well plate at a density of 20,000 cells per well and grown for an additional 4 h in serum and phenol free DMEM growth medium containing 1% FBS and antibiotics. The cells were then treated with or without SIN-1 (500 μM, 48 h) in the presence of 10% well volume of alamarBlue dye. The color change of the dye was determined at an excitation wavelength of 560 nm and an emission wavelength of 590 nm in a Fluoroskan Ascent plate reader. […] Cellular metabolism was expressed as follows: […]
(The colour change of resazurin is a common sign of viable cells or microbes.)

In another experiment the target is T1, PKG-1α (Homo sapiens, UniProt Q13976).
T1 construct: transfected with an expression plasmid containing a full length WT-PKG-1α cDNA; made in house; host or cells: HEK-293T (methods); the results paragraph b527 says PASMC
T1 sequence (Q13976 2-671): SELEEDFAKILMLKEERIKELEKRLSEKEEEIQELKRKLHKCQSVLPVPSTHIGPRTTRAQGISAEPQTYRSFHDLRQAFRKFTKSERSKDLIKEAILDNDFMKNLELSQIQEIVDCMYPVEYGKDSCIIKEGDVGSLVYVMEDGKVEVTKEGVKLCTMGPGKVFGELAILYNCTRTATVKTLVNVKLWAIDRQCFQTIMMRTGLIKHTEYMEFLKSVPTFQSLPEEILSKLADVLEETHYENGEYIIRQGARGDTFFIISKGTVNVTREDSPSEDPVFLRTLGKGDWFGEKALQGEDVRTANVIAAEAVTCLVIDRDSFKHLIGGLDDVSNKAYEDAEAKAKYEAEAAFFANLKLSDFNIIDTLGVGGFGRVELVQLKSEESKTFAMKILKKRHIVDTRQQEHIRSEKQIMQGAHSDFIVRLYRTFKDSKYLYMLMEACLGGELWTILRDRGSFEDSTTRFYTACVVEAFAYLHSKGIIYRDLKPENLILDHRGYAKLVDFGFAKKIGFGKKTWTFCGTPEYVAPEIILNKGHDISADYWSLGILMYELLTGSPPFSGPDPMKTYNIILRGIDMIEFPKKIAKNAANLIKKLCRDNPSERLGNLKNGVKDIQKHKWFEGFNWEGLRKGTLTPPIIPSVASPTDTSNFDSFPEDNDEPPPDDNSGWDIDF
The experiment is described as follows: 3-NT-Y247-PKG-1α immunoblot in transfected PASMC. To be noted: PASMC transfected with WT-PKG-1α, SIN-1 500 μM 30 min. It counts as cell-based. How it is done: The 3-NT Y247 PKG-1α specific antibody was raised against a synthetic peptide antigen ENGE(Y-NO2)[…], where Y-NO2 represent 3-nitrotyrosine. The peptide was used to immunize rabbits. Tyrosine nitration-reactive rabbit antiserum was first purified by affinity chromatography. Further purification was carried out using immunodepletion by non-nitrated peptide […] resin chromatography, after which the resulting eluate was tested for antibody specificity by immunoblotting and immune-histochemistry with fluorescent staining.
Cells were prepared as previously described (Sud, N., et al., American Journal of Physiology 293, L1444-1453 (2007); Sharma, S., et al., American Journal of Physiology 294, L46-56 (2008)). Briefly, the cellular protein extracts were prepared by homogenizing the cells in lysis buffer (50 mM Tris-HCl, pH 7.6, 0.5% Triton X-100, and 20% glycerol) containing Halt protease inhibitor cocktail (Pierce, Rockford, Ill.). The extracts were then clarified by centrifugation (20,000 g for 20 min at 4° C.). […] Reactive bands were visualized using chemi-luminescence (Pierce Laboratories, Rockford, Ill.) on a Kodak 440CF image station. The band intensity was quantified using Kodak 1D image processing software. […]
PASMC were transiently transfected with expression plasmids containing WT- or Y247FPKG-1α for 48 h. […] The fluorescent-stained sections were analyzed using confocal microscopy.
(In general: In western blotting, separated proteins are transferred to a membrane and probed.)

On to “3-morpholinosydnonimine N-ethylcarbamide [SIN-1]”, for which the “Metabolism, WT-PKG-1α transfected PASMC” value in experiment [1] is “stimulated”. Moreover, the “WT-PKG-1α nitration (3-NT-Y247-PKG-1α antibody)” value on PKG-1α is on record as “significantly increased”.
